Read-outs that look alike come from different tables or passages of the source.
Assays:
BRG-1 = target: T1, BRG-1 (Homo sapiens, UniProt P51532); assay: ATPase catalytic activity of BRG-1, ADP-Glo in vitro biochemical assay; conditions: 30 nM BRG-1, 400 μM ATP, read-out: BRG1 IC50
T1 construct: made in house; host or cells: High Five insect cells
Method in brief: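 Signal reflects ADP produced by the enzyme, quantified as luminescence after unused ATP is cleared and ADP is reconverted to ATP for the luciferase reaction; both steps run at room temperature, 40 and 60 min respectively.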

BRM = target: T2, BRM (Homo sapiens, UniProt P51531); assay: ATPase catalytic activity of BRM, ADP-Glo in vitro biochemical assay; conditions: for IC50: 30 nM BRM, 400 μM ATP; for Ratio* (BRG1 IC50 (μM) divided by BRM IC50 (μM)): selectivity ratio BRG1 IC50 / BRM IC50
T2 construct: made in house; host or cells: High Five insect cells
Method in brief: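 Recombinant BRM (30 nM) hydrolysed 400 μM ATP with 20 nM salmon sperm DNA in pH 8 Tris buffer containing 20 mM MgCl2, 50 mM NaCl, 0.1% Tween-20 and 1 mM DTT, 1 h at room temperature. ADP formed was quantified by ADP-Glo luminescence.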

[1] = ATPase catalytic activity, ADP-Glo

T2 sequence (P51531 whole entry): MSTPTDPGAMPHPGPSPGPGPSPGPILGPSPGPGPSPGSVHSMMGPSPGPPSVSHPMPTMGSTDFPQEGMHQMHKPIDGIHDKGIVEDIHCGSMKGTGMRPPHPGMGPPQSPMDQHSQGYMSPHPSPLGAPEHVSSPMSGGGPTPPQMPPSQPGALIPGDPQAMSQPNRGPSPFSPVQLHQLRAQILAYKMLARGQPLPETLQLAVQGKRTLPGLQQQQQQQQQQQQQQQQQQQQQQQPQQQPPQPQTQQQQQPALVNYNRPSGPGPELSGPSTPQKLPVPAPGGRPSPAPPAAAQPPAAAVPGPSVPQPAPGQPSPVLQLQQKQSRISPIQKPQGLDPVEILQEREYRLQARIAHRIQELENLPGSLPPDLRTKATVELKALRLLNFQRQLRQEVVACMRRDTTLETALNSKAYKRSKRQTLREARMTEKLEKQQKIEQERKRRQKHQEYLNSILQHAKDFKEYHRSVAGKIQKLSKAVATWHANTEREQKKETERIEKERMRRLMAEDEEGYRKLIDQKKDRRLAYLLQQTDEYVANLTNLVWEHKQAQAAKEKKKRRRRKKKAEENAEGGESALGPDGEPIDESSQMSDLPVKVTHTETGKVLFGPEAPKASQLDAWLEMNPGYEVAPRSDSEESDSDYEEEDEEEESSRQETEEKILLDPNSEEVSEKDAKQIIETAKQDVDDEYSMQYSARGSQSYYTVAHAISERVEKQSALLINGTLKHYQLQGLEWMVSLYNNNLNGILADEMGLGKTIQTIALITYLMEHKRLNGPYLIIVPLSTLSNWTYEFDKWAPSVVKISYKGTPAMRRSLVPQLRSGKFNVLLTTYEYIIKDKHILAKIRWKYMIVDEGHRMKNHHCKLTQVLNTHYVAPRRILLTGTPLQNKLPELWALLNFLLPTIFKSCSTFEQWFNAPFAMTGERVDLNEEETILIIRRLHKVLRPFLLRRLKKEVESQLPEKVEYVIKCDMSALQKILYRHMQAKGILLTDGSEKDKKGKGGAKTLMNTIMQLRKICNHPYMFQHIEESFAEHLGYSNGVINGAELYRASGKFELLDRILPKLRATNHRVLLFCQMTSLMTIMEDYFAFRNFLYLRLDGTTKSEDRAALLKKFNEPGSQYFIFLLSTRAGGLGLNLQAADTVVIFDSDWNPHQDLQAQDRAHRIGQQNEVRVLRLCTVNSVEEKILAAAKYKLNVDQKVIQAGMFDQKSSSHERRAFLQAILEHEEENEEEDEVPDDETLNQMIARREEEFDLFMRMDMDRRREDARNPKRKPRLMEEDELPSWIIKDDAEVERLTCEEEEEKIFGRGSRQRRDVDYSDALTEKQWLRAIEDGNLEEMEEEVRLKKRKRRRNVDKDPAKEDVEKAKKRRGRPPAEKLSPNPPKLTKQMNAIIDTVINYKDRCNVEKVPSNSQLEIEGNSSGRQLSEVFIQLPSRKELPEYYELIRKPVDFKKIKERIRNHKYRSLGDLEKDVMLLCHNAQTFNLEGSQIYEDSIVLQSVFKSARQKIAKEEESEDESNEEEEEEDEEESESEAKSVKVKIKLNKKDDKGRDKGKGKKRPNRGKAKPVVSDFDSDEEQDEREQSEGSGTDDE
T1 sequence (P51532 whole entry): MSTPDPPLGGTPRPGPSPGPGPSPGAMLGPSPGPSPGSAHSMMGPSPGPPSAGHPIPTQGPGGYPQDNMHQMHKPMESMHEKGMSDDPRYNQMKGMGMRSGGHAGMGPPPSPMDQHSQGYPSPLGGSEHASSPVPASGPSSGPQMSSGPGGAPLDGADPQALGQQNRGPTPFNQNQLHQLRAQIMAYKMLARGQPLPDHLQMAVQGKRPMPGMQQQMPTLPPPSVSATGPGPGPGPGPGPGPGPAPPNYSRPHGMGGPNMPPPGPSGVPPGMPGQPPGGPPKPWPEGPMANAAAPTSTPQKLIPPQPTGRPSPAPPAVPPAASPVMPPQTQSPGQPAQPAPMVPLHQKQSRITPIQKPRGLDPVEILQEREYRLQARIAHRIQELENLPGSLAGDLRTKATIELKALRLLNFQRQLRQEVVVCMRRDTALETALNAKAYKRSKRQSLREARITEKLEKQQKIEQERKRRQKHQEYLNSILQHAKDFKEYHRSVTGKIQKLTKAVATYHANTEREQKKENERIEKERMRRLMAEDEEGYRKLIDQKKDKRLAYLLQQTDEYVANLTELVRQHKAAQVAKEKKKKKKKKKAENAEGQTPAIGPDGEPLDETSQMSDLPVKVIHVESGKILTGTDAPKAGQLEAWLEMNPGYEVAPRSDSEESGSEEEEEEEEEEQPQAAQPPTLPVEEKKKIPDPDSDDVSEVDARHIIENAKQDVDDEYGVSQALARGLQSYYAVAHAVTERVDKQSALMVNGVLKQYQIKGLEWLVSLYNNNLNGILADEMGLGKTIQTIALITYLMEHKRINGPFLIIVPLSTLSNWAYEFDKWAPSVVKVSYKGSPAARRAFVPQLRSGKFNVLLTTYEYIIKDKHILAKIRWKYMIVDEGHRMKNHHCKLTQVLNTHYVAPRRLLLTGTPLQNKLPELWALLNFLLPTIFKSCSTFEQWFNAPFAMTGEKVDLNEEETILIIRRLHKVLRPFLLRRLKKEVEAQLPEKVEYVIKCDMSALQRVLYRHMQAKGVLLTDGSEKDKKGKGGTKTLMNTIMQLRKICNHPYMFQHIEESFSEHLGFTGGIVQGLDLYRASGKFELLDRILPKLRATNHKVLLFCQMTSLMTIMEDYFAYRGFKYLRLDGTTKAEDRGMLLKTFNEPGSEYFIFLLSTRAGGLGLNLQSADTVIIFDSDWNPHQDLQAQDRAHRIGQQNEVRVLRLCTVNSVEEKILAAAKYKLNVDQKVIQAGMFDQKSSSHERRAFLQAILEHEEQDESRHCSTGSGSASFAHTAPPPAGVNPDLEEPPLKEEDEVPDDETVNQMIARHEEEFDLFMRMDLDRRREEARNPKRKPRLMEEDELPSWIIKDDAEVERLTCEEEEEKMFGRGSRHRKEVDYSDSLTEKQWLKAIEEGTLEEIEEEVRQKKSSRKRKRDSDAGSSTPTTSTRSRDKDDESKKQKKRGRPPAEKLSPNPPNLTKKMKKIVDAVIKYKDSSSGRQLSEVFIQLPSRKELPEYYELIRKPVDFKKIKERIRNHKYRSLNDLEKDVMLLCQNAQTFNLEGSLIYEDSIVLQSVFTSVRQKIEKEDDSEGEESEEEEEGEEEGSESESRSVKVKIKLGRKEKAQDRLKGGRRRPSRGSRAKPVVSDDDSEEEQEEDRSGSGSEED

Row | IC50 (BRG-1; [1]) [nM] | IC50 (BRM; [1]) [nM] | Ratio* (BRM; ratio of BRG1 IC50 to BRM IC50) | IC50 (BRG-1; ADP-Glo ATPase assay) [nM] | IC50 (BRM; ADP-Glo ATPase assay) [nM] | Ratio* (BRG1 IC50 (μM) divided by BRM IC50 (μM)) (BRM) | Ratio* (BRM; ratio BRG1 IC50 / BRM IC50) | SMILES
1 | 125 | 7.5 | 16.72 |  |  |  |  | O=C(NCc1cc2nc(N3CCOc4ccc(C5CC5)cc43)ccc2cn1)c1ccc2c(c1)S(=O)(=O)CCOC2 [Compound 606]
2 |  |  |  | 3480 | 197 | 17.67 |  | Cc1ccc(C(=O)NCc2cc3nc(-c4cncc(C5CC5)n4)ccc3cn2)cc1S(=O)(=O)N(C)C [Compound 283]
3 | 882 | 40.2 | 21.94 |  |  |  |  | O=C(NCc1cc2nc(N3CCCc4ccc([C@@H]5CC5(F)F)nc43)ccc2cn1)c1ccc2c(c1)S(=O)(=O)CCOC2 [Compound 689]
4 | 85.8 | 9.6 | 8.89 |  |  |  |  | CO[C@H]1CN(c2cccc(-c3ccc4cnc(CNC(=O)c5ccc6c(c5)S(=O)(=O)CCOC6)cc4n3)n2)C[C@@H]1F [Compound 339]
5 | 43.8 | 7.9 | 5.56 |  |  |  |  | CCOc1ccnc2c1CCCN2c1ccc2cnc(CNC(=O)c3ccc4c(c3)S(=O)(=O)CCOC4)cc2n1 [Compound 573]
6 |  |  |  | 56 | 5.6 | 9.98 |  | Cc1ncc(C(=O)NCc2cc3nc(-c4cccc(N5C[C@@H](C)O[C@@H](C)C5)n4)ccc3cn2)cc1S(C)(=O)=O [Compound 107]
7 |  |  |  | 906 | 15.5 |  | 58.26 | C[C@@H]1C[C@@H]1c1ccc2c(n1)N(c1ccc3cnc(CNC(=O)c4ccc5c(c4)S(=O)(=O)CCOC5)cc3n1)CCO2 [Compound 832]
8 | 1680 | 88.9 | 18.86 |  |  |  |  | CCOc1ccc2c(n1)N(c1ccc3cnc(CNC(=O)c4ccc5c(c4)S(=O)(=O)CCOC5)cc3n1)CCC2 [Compound 576]
9 | 120 | 6.4 | 18.84 |  |  |  |  | O=C(NCc1cc2nc(N3CCCc4ccc(C(F)F)cc43)ccc2cn1)c1ccc2c(c1)S(=O)(=O)CCOC2 [Compound 532]
10 |  |  |  | 1680 | 62.4 |  | 26.90 | [2H]C1([2H])Oc2ccc(C(=O)NCc3cc4nc(N5CCOc6ccc(C(F)F)nc65)ccc4cn3)cc2S(=O)(=O)C([2H])([2H])C1([2H])[2H] [Compound 818]
11 | 19.4 | 5 | 3.85 |  |  |  |  | C[C@@H]1CN(c2cccc(-c3ccc4cnc(CNC(=O)c5cc6c(cc5F)COCCS6(=O)=O)cc4n3)n2)C[C@H](C)O1 [Compound 648]
12 |  |  |  | 176 | 18.7 | 9.42 |  | Cn1ccc2c(-c3ccc4cnc(CNC(=O)c5ccc6c(c5)S(=O)(=O)CCOC6)cc4n3)cccc21 [Compound 245]
13 |  |  |  | 290 | 23.2 | 12.51 |  | CS(=O)(=O)c1cc(C(=O)NCc2cc3nc(-c4cccc(N5CC[C@@H]6OCC[C@H]6C5)n4)ccc3cn2)ccc1C(F)F [Compound 123]
14 |  |  |  | 662 | 45.8 |  | 14.46 | Cn1cc(-c2ccc3cnc(CNC(=O)c4ccc5c(c4)S(=O)(=O)CCOC5)cc3n2)c(OC(F)F)n1 [Compound 812]
15 |  |  |  | 58.1 | 4.3 |  | 13.63 | CO[C@H](C)COc1ccc2c(c1)N(c1ccc3cnc(CNC(=O)c4ccc5c(c4)S(=O)(=O)CCOC5)cc3n1)CCC2 [Compound 705]
16 |  |  |  | 794 | 82.3 | 9.65 |  | COCC1CN(c2cccc(-c3ccc4cnc(CNC(=O)c5ccc6c(c5)S(=O)(=O)CCOC6)cc4n3)n2)C1 [Compound 221]
17 | 234 | 23.1 | 10.09 |  |  |  |  | CCO[C@H]1CCS(=O)(=O)c2cc(C(=O)NCc3cc4nc(-c5cccc(N6C[C@@H](C)O[C@@H](C)C6)n5)ccc4cn3)ccc2C1 [Compound 482]
18 | 1190 | 37.2 | 31.92 |  |  |  |  | O=C(NCc1cc2nc(N3CCOc4ccc(C(F)F)nc43)ccc2cn1)c1ccc2c(c1)S(=O)(=O)CCOC2 [Compound 594]
19 |  |  |  | 93.4 | 6.6 |  | 14.12 | [2H]C1([2H])OC([2H])([2H])[C@H](C)S(=O)(=O)c2cc(C(=O)NCc3cc4nc(N5CCOc6cc(C)cnc65)ccc4cn3)ccc21 [Compound 741]
20 |  |  |  | 324 | 20.3 | 15.97 |  | COCCN(C)c1cccc(-c2ccc3cnc(CNC(=O)c4ccc(Cl)c(S(C)(=O)=O)c4)cc3n2)n1 [Compound 97]
21 |  |  |  | 343 | 16.3 | 21.00 |  | O=C(NCc1cc2cc(-c3cccc(N4CCC4)n3)ccc2cn1)c1cc(F)c2c(c1)S(=O)(=O)CCOC2 [Compound 268]
22 |  |  |  | 257 | 33 | 7.80 |  | CS(=O)(=O)c1cc(C(=O)NCc2cc3nc(-c4cccc(N5CC[C@H]6OCC[C@@H]6C5)n4)ccc3cn2)ccc1Cl [Compound 98]

Row | IC50 (BRG-1; [1]) [nM] | IC50 (BRM; [1]) [nM] | Ratio* (BRM; ratio of BRG1 IC50 to BRM IC50) | IC50 (BRG-1; ADP-Glo ATPase assay) [nM] | IC50 (BRM; ADP-Glo ATPase assay) [nM] | Ratio* (BRG1 IC50 (μM) divided by BRM IC50 (μM)) (BRM) | Ratio* (BRM; ratio BRG1 IC50 / BRM IC50) | SMILES
23 |  |  |  | 1230 | 136 | 9.05 |  | C[C@]1(c2cccc(-c3ccc4cnc(CNC(=O)c5ccc6c(c5)S(=O)(=O)CCOC6)cc4n3)n2)CC1(F)F [Compound 219]
24 | 140 | 9.2 | 15.24 |  |  |  |  | COc1cc(Cl)ccc1-c1ccc2cnc(CNC(=O)c3ccc4c(c3)S(=O)(=O)[C@@H](C)COC4)cc2n1 [Compound 386]
25 | 1680 | 215 | 7.79 |  |  |  |  | C/C(F)=C/c1ccc(C(=O)NCc2cc3nc(-c4cccc(N5C[C@@H](C)O[C@@H](C)C5)n4)ccc3cn2)cc1S(C)(=O)=O [Compound 475]
26 | 534 | 32.8 | 16.28 |  |  |  |  | CC1CN(c2cccc(-c3ccc4cnc(CNC(=O)c5ccc6c(c5)S(=O)(=O)C(C)CN6C)cc4n3)n2)CC(C)O1 (centres unmarked) [Compound 567]
27 | 1700 | 55.3 | 30.77 |  |  |  |  | COCCc1ccc2c(n1)N(c1ccc3cnc(CNC(=O)c4ccc5c(c4)S(=O)(=O)CCOC5)cc3n1)CCC2 [Compound 651]
28 |  |  |  | 284 | 23.5 |  | 12.08 | O=C(NCc1cc2nc(N3CCOc4cc(C5CC5)cc(F)c43)ccc2cn1)c1ccc2c(c1)S(=O)(=O)CCOC2 [Compound 765]
29 |  |  |  | 159 | 9.5 |  | 16.66 | Cc1cc(F)c2c(c1)OCCN2c1ccc2cnc(CNC(=O)c3ccc4c(c3)S(=O)(=O)CCOC4)cc2n1 [Compound 764]
30 | 431 | 47.3 | 9.12 |  |  |  |  | O=C(NCc1cc2nc(-c3cccc(OC4CC4(F)F)n3)ccc2cn1)c1ccc2c(c1)S(=O)(=O)CCOC2 (centres unmarked) [Compound 427]
31 |  |  |  | 2300 | 36.2 |  | 63.48 | O=C(NCc1cc2nc(N3CCOc4cc(F)c(C5CC5)nc43)ccc2cn1)c1ccc2c(c1)S(=O)(=O)CCOC2 [Compound 751]
32 |  |  |  | 5000 | 287 | 17.42 |  | O=C1CS(=O)(=O)c2cc(C(=O)NCc3cc4nc(-c5cccc(C6CC6)c5)ccc4cn3)ccc2CN1 [Compound 188]
33 | 595 | 27.4 | 21.75 |  |  |  |  | CCOc1cccc(-c2ccc3cnc(CNC(=O)c4cc(F)c5c(c4)S(=O)(=O)[C@@H](C)COC5)cc3n2)n1 [Compound 453]
34 | 218 | 19.5 | 11.19 |  |  |  |  | COc1nc(-c2ccc3cnc(CNC(=O)c4cc(F)c5c(c4)S(=O)(=O)[C@@H](C)COC5)cc3n2)ccc1C(F)F [Compound 530]
35 | 105 | 8.1 | 12.99 |  |  |  |  | Cc1ccc2c(c1)CCCN2c1ccc2cnc(CNC(=O)c3ccc4c(c3)S(=O)(=O)CCOC4)cc2n1 [Compound 350]
36 |  |  |  | 2710 | 156 | 17.37 |  | CS(=O)(=O)c1cc(C(=O)NCc2cc3nc(-c4cncc(C5CC5)n4)ccc3cn2)ccc1Cl [Compound 294]
37 | 1130 | 58.3 | 19.38 |  |  |  |  | Cc1cc2c(nc1C1CC1)N(c1ccc3cnc(CNC(=O)c4ccc5c(c4)S(=O)(=O)CCOC5)cc3n1)CCC2 [Compound 632]
38 |  |  |  | 118 | 8 |  |  | O=C(NCc1cc2nc(-c3cccc(N4CCC4)n3)ccc2nn1)c1ccc2c(c1)S(=O)(=O)CCOC2 [Compound 57]
39 |  |  |  | 2410 | 223 | 10.84 |  | O=C(NCc1cc2nc(-c3cncc(C4CC4)n3)ccc2cn1)c1ccc2c(c1)S(=O)(=O)NCCC2 [Compound 293]
40 |  |  |  | 85 | 8.6 | 9.89 |  | C[C@@H]1CN(c2cccc(-c3ccc4cnc(CNC(=O)c5cc(F)c6c(c5)S(=O)(=O)CCCO6)cc4n3)n2)C[C@H](C)O1 [Compound 37]
41 | 36.6 | 3.7 | 9.82 |  |  |  |  | COC[C@@H]1CCc2ccc(-c3ccc4cnc(CNC(=O)c5ccc6c(c5)S(=O)(=O)CCOC6)cc4n3)nc2N1C [Compound 476]
42 |  |  |  | 324 | 22.5 | 14.43 |  | CS(=O)(=O)c1cc(C(=O)NCc2cc3nc(-c4cccc(N5CC[C@@H]6COCC6C5)n4)ccc3cn2)ccc1C(F)F (some centres unmarked) [Compound 86]
43 | 991 | 29.3 | 33.79 |  |  |  |  | O=C(NCc1cc2nc(N3CCCc4ccc(COC5CC5)nc43)ccc2cn1)c1ccc2c(c1)S(=O)(=O)CCOC2 [Compound 598]
